Results taken from US8044095B2, “Mixture of catechins or rather polyphenols extracted from chinese green tea or other vegetables for the prevention of prostate cancer and for the treatment of prostate hypertrophy (BPH)” (Genprofiler s.r.l., priority 2004, dated 2011).

Legend:
[1] = system: normal human prostate epithelial cells (EPIT); experiment: Dose-response growth study in normal human prostate epithelial cells (EPIT); type: cell-based; details: increasing quantities of EGCG, cells in culture
[2] = system: PNT1a; experiment: Dose-response growth study in SV40-immortalized human prostate epithelial cells (PNT1a), compared with PC-3; type: cell-based; details: PNT1a versus PC-3 cells
[3] = in vivo; cited from earlier work
[4] = system: prostate cancer in rats TRAMP; details: rat, in vivo
From the text: To show the validity of this hypothesis we worked on a preclinical animal model of […]. One of the more important preclinical models for the study of prostate tumor in vivo consists of transgenic rats TRAMP. These animals, when recombinant homozygotes develop prostate cancer with 100% probability in the adult stage. Progress of the illness recapitulates the essential phases of onset and progress of the human ailment. Indeed, it begins with lesions of the Prostate Intraepithelial Neoplasia (PIN) type to then give full blown neoplastic histological lesions, evolve subsequently towards androgen-resistant and aggressive phenotypes, then originating extraprostate and metastatic lesions in the terminal phase. […] Reduction of the onset of this neoplasia in treated animals was 80% (only 20 cases of neoplasia in 100 against 100 out of 100 in untreated animals).

Compound: O=C(O[C@@H]1Cc2c(O)cc(O)cc2O[C@@H]1c1cc(O)c(O)c(O)c1)c1cc(O)c(O)c(O)c1 [EGCG, (−)-epigallocatechina-3-gallato]
- growth of EPIT [1]: not modified significantly
- IC50 of EGCG in PNT1a relative to PC-3 [2]: very lower than in PC-3
- half-life in plasma [3]: over 5 hours

Compound: catechins
- adverse or collateral effect in vitro and in the animal model [4]: did not witness any adverse or collateral effect
